Legend:
[1] = tested on: SK-OV-3 human ovarian cancer cells; experiment: In vitro antiproliferative activity, "kiss-and-run" washout experiment (30 min + washout + up to 72 h); format: cell-based
Experimental: (§1) U87MG human malignant glioma, SK-MEL-28 human melanoma, SK-OV-3 human ovarian cancer, and A549 human lung cancer cell lines were purchased from ATCC. The cells were cultured in Dulbecco’s Modified Eagle’s Medium (DMEM; Biosera, Nuaille, France), supplemented with 10% heat-inactivated Fetal Bovine Serum (FBS; Biosera), and with 1% Penicillin/Streptomycin (Biosera). Cells were cultured in sterile T75 flasks with ventilation cap (Sarstedt, Nümbrecht, Germany) at 37 °C in a humidified atmosphere with 5% CO2 in ESCO CelCulture Incubator (ESCO, Friedberg, Germany). Manipulations with the cells were performed in biosafety cabinet (laminar) ESCO Sentinel Gold class II model AC2-4E8 (ESCO).
(§2) After standard trypsinization and harvesting cells by trypsin (Biosera), ethylenediaminetetraacetic acid (EDTA; Biosera) and PBS solution, 6×10^3 cells per well were seeded in serum containing (10%) growth medium to 96-well plates with flat bottom (Eppendorf, Hamburg, Germany), in a 100 μL volume per well, and incubated at 37°C.
(§3) In the wash out experiment, cells were incubated with the compounds (5% serum final) for 30 min, then they were washed out, and additionally incubated in growth medium (5% serum final) up to 72 h. The control wells were treated only with serum free medium (5% serum final).
(§4) For the evaluation of the in vitro antiproliferative activity of compounds, the cell viability was determined by MTT assay (3-(4,5-dimethylthiazol-2-yl)-2,5-diphenyl-tetrazolium bromide) obtained from Duchefa Biochemie (Haarlem, Netherlands).
(§5) 22 µL of MTT solution (5 mg/mL in PBS, 0.5 mg/mL final) was added to each well and after 2 h incubation at 37°C, the supernatant was removed. […] Average background absorbance (DMSO-Ethanol) was subtracted from absorbance values of control and treated wells, and cell viability was determined relative to untreated (control) wells where cell viability was arbitrarily set to 100%. […] The experiments were done in triplicate and each experiment was repeated three times.
(§6) Recently, a new protocol for evaluating the antiproliferative activity and the targeting ability of integrin-ligand based conjugates was developed by the group of Prof. […] In this procedure, which we named “kiss-and-run” experiment, after very short initial contact times (15–30 min) of the toxin with the cells in vitro, the solution is drained, and cells are resuspended in the culture medium for a 72 h incubation. This protocol is aimed at simulating the rapid clearance of the drugs that occurs in vivo in the extracellular tumor environment, thus highlighting the ability of the conjugate to bind the integrin receptor on the cell surface.

[2] = tested on: SK-MEL-28 human melanoma cells; experiment: as above; format: cell-based
Experimental: as §1, §2, §3, §4, §5, §6

[3] = tested on: A549 human lung cancer cells; experiment: as above; format: cell-based
Experimental: as §1, §2, §3, §4, §5, §6

[4] = tested on: U87MG human malignant glioma cells; experiment: as above; format: cell-based
Experimental: as §1, §2, §3, §4, §5, §6

[5] = tested on: SK-OV-3 human ovarian cancer cells; experiment: In vitro antiproliferative activity, MTT, 72 h continuous treatment (no-washout); format: cell-based
Experimental: as §1, §2, §3, §4, §5

[6] = tested on: A549 human lung cancer cells; experiment: as above; format: cell-based
Experimental: as §1, §2, §3, §4, §5

U87MG cells = experiment: In vitro antiproliferative activity in the presence of MMP-2 inhibitor; format: cell-based, human; settings: 16 h pre-incubation with MMP-2 inhibitor 10 µM, then 72 h continuous treatment, 5% serum final; average ± SD, triplicate; read-out: IC50 MMP-2 inhibitor + Treatment 72 h U87MG (αVβ3 +)
Experimental: as §4
(§7) 22 µL of MTT solution (5 mg/mL in PBS, 0.5 mg/mL final) was added to each well and after 2 h incubation at 37°C, the supernatant was removed. The precipitated purple formazan crystals were dissolved in 100 µL of a 1:1 solution of dimethylsulfoxide (DMSO; Merck, St. Louis, MO, United States): 96% Ethanol (Molar Chemicals Kft., Halásztelek, Hungary) and the absorbance was measured after 15 min at λ = 570 nm by using microplate reader CLARIOstar Plus (BMG Labtech, Ortenberg, Germany). Average background absorbance (DMSO-Ethanol) was subtracted from absorbance values of control and treated wells, and cell viability was determined relative to untreated (control) wells where cell viability was arbitrarily set to 100%. Absorbance values of treated samples were normalized versus untreated control samples and interpolated by nonlinear regression analysis with GraphPad Prism 6 software (GraphPad, La Jolla, San Diego, CA, United States) to generate sigmoidal dose-response curves from which the 50% inhibitory concentration (IC50) values of the compounds were calculated and presented as nanomolar (nM) units. The experiments were done in triplicate and each experiment was repeated three times.
(§8) The conjugate 2 and the free MMAE were tested in presence of the MMP-2 inhibitor cis-9-octadecenoyl-N-hydroxylamine (Merck) dissolved in DMSO ([You et al., 2018]). The three αVβ3 integrin and MMP-2 overexpressing cancer cell lines (U87MG, SK-MEL-28, […]) were seeded with serum containing medium ([Ellijimi et al., 2018]; [Shim et al., 2019]) and, after 8 h, were washed-out. Then, 100 µL per well of MMP-2 inhibitor (10 µM final concentration) were added and cells were incubated for 16 h, prior to the treatment. Later, the conjugate 2 and free MMAE were dissolved in 10% serum containing medium and added to reach the same concentrations evaluated in the previous test in a final volume of 100 µL per well and incubated (5% serum final) continuously for 72 h of the treatment. The experiments were performed in triplicate.

SK-MEL-28 cells = experiment: as above; format: cell-based, human; settings: 16 h pre-incubation with MMP-2 inhibitor 10 µM, then 72 h continuous treatment, 5% serum final; average ± SD, triplicate; read-out: IC50 MMP-2 inhibitor + Treatment 72 h SK-MEL-28 (αVβ3 +)
Experimental: as §4, §7, §8

SK-OV-3 cells = experiment: as above; format: cell-based, human; settings: 16 h pre-incubation with MMP-2 inhibitor 10 µM, then 72 h continuous treatment, 5% serum final; average ± SD, triplicate; read-out: IC50 MMP-2 inhibitor + Treatment 72 h SK-OV-3 (αVβ3 +)
Experimental: as §4, §7, §8

[7] = MTT, 30 min treatment, washout, further incubation up to 72 h, 5% serum final
[8] = ratio of IC50 of 2 vs MMAE, 30 min + washout + up to 72 h
[9] = relative potency = ratio of IC50 of 2 vs MMAE, 72 h no washout

CC[C@H](C)[C@@H]([C@@H](CC(=O)N1CCC[C@H]1[C@H](OC)[C@@H](C)C(=O)N[C@H](C)[C@@H](O)c1ccccc1)OC)N(C)C(=O)[C@@H](NC(=O)[C@H](C(C)C)N(C)C(=O)OCc1ccc(NC(=O)CNC(=O)[C@H](CC(C)C)NC(=O)[C@@H]2CCCN2C(=O)CNC(=O)CCc2cn(CCOCCOCCOCCOCC(=O)NCc3ccc(CN4C(=O)[C@H]5CC(=O)N[C@H](C(=O)O)CC(=O)NCC(=O)N[C@@H](CCCNC(=N)N)C(=O)NC[C@H]4C(=O)N5)cc3)nn2)cc1)C(C)C [compound 2, cyclo[DKP-isoDGR]-PEG4-GPLG-PABC-MMAE]
IC50 [1, 7]: 198 ± 13.7 nM
RP [SMDC (2)/MMAE] SK-OV-3 [1, 8]: 0.97
IC50 [2, 7]: 938 ± 112 nM
RP [SMDC (2)/MMAE] SK-MEL-28 [2, 8]: 0.67
IC50 ([3]; MTT, 30 min treatment, washout, further incubation up to 72 h, 5% serum final, αVβ3 low expressing line): 1240 ± 85.2 nM
RP [SMDC (2)/MMAE] A549 [3, 8]: 4.67
IC50 [4, 7]: 683 ± 37.1 nM
RP [SMDC (2)/MMAE] U87MG [4, 8]: 0.32
IC50 ([5]; MTT, 72 h continuous treatment, no washout, 5% serum final, triplicate, repeated three times): 3.7 ± 0.3 nM
RP [SMDC (2)/MMAE] SK-OV-3 [5, 9]: 120.52
IC50 ([6]; MTT, 72 h continuous treatment, no washout, 5% serum final, αVβ3 low expressing line, triplicate, repeated three times): 20.8 ± 1.8 nM
RP [SMDC (2)/MMAE] A549 [6, 9]: 302.32
IC50 (U87MG cells): 7.4 nM
IC50 (SK-MEL-28 cells): 28.7 nM
IC50 (SK-OV-3 cells): 3.2 nM

Reference: paper PMC10363981, “Optimizing the enzymatic release of MMAE from isoDGR-based small molecule drug conjugate by incorporation of a GPLG-PABC enzymatically cleavable linker” (Frontiers in Pharmacology, 2023)
